The subject of this assay is cells of rat pituitary glands. Kind of assay: in vitro GH release, rat pituitary cell monolayer culture bioassay (ir GH by radioimmunoassay). Format: cell-based. The note with it: for biological potency (additional testing): compared with PGRF (1-40); for GH-releasing activity: peptides isolated from human islet cell tumor. As to the method: To determine the effectiveness of the peptides to promote the release of growth hormone, in vitro assays are carried out using synthetic PGRF (1-40) of Example II in side-by-side comparison with equimolar concentrations of the extracted and purified native PGRF (1-40) and of a GRF Reference Standard having a known effectiveness to promote the release of growth hormone from pituitary cells. The GRF Reference standard is described and defined in Brazeau, et al., Endocrinology, Vol. 110, A538(1982) and is an amount of a preparation of rat hypothalamic origin that produces a half-maximal response in terms of GH release in a pituitary cell monolayer bioassay. Cultures are used which include cells of rat pituitary glands removed some four to five days previously. Both cultures of a defined standard medium and cultures which are considered optimal for the secretion of growth hormone are used for the comparative testing, in the general manner described in Brazeau, et al. Regulatory Peptides, 1, 255, 1981. Incubation with the substance to be tested is carried out for 3 to 4 hours, and aliquots of the culture medium are removed and processed to measure their contents in inmunoreactive GH(ir GH) by a well-characterized radioimmunoassay.
The in vitro assays described in Example VII are repeated using Native PGRF(1-40) and Native PGRF(1-44) and the results are set forth in following Table III: […]

In the case of `CC[C@H](C)[C@H](NC(=O)[C@H](C)NC(=O)[C@H](CC(=O)O)NC(=O)[C@H](C)NC(=O)[C@@H](N)Cc1ccc(O)cc1)C(=O)N[C@@H](Cc1ccccc1)C(=O)N[C@H](C(=O)N[C@@H](CC(N)=O)C(=O)N[C@@H](CO)C(=O)N[C@@H](Cc1ccc(O)cc1)C(=O)N[C@@H](CCCNC(=N)N)C(=O)N[C@@H](CCCCN)C(=O)N[C@H](C(=O)N[C@@H](CC(C)C)C(=O)NCC(=O)N[C@@H](CCC(N)=O)C(=O)N[C@@H](CC(C)C)C(=O)N[C@@H](CO)C(=O)N[C@@H](C)C(=O)N[C@@H](CCCNC(=N)N)C(=O)N[C@@H](CCCCN)C(=O)N[C@@H](CC(C)C)C(=O)N[C@@H](CC(C)C)C(=O)N[C@@H](CCC(N)=O)C(=O)N[C@@H](CC(=O)O)C(=O)N[C@H](C(=O)N[C@@H](CCSC)C(=O)N[C@@H](CO)C(=O)N[C@@H](CCCNC(=N)N)C(=O)N[C@@H](CCC(N)=O)C(=O)N[C@@H](CCC(N)=O)C(=O)NCC(=O)N[C@@H](CCC(=O)O)C(=O)N[C@@H](C)C(=O)N[C@@H](CC(N)=O)C(=O)N[C@@H](CCC(N)=O)C(=O)N[C@@H](CCC(=O)O)C(=O)N[C@@H](CO)C(=O)NCC(=O)N[C@@H](CCCNC(=N)N)C(=O)O)[C@@H](C)CC)C(C)C)[C@@H](C)O` [Example IV], the “biological potency (additional testing)” value is recorded as “substantially the same biological potency as the native PGRF (1-40)”.
For `CC[C@H](C)[C@H](NC(=O)[C@H](C)NC(=O)[C@H](CC(=O)O)NC(=O)[C@H](C)NC(=O)[C@@H](N)Cc1ccc(O)cc1)C(=O)N[C@@H](Cc1ccccc1)C(=O)N[C@H](C(=O)N[C@@H](CC(N)=O)C(=O)N[C@@H](CO)C(=O)N[C@@H](Cc1ccc(O)cc1)C(=O)N[C@@H](CCCNC(=N)N)C(=O)N[C@@H](CCCCN)C(=O)N[C@H](C(=O)N[C@@H](CC(C)C)C(=O)NCC(=O)N[C@@H](CCC(N)=O)C(=O)N[C@@H](CC(C)C)C(=O)N[C@@H](CO)C(=O)N[C@@H](C)C(=O)N[C@@H](CCCNC(=N)N)C(=O)N[C@@H](CCCCN)C(=O)N[C@@H](CC(C)C)C(=O)N[C@@H](CC(C)C)C(=O)N[C@@H](CCC(N)=O)C(=O)N[C@@H](CC(=O)O)C(=O)N[C@H](C(=O)N[C@@H](CCSC)C(=O)N[C@@H](CO)C(=O)N[C@@H](CCCNC(=N)N)C(=O)N[C@@H](CCC(N)=O)C(=O)N[C@@H](CCC(N)=O)C(=O)NCC(=O)N[C@@H](CCC(=O)O)C(=O)N[C@@H](CO)C(=O)N[C@@H](CC(N)=O)C(=O)N[C@@H](CCC(N)=O)C(=O)N[C@@H](CCC(=O)O)C(=O)N[C@@H](CCCNC(=N)N)C(=O)NCC(=O)N[C@@H](C)C(N)=O)[C@@H](C)CC)C(C)C)[C@@H](C)O` [Example V, PGRF (1-40)-amide], the “biological potency (additional testing)” value was “substantially twice the biological potency of the synthetic peptide tested in Example VII”.
In the case of `CC[C@H](C)[C@H](NC(=O)[C@H](C)NC(=O)[C@H](CC(=O)O)NC(=O)[C@H](C)NC(=O)[C@@H](N)Cc1ccc(O)cc1)C(=O)N[C@@H](Cc1ccccc1)C(=O)N[C@H](C(=O)N[C@@H](CC(N)=O)C(=O)N[C@@H](CO)C(=O)N[C@@H](Cc1ccc(O)cc1)C(=O)N[C@@H](CCCNC(=N)N)C(=O)N[C@@H](CCCCN)C(=O)N[C@H](C(=O)N[C@@H](CC(C)C)C(=O)NCC(=O)N[C@@H](CCC(N)=O)C(=O)N[C@@H](CC(C)C)C(=O)N[C@@H](CO)C(=O)N[C@@H](C)C(=O)N[C@@H](CCCNC(=N)N)C(=O)N[C@@H](CCCCN)C(=O)N[C@@H](CC(C)C)C(=O)N[C@@H](CC(C)C)C(=O)N[C@@H](CCC(N)=O)C(=O)N[C@@H](CC(=O)O)C(=O)N[C@H](C(=O)N[C@@H](CCSC)C(=O)N[C@@H](CO)C(=O)N[C@@H](CCCNC(=N)N)C(=O)N[C@@H](CCC(N)=O)C(=O)N[C@@H](CCC(N)=O)C(=O)NCC(=O)N[C@@H](CCC(=O)O)C(=O)N[C@@H](CO)C(=O)N[C@@H](CC(N)=O)C(=O)N[C@@H](CCC(N)=O)C(=O)N[C@@H](CCC(=O)O)C(=O)O)[C@@H](C)CC)C(C)C)[C@@H](C)O` [Example VI, PGRF (1-37)-free acid], the “biological potency (additional testing)” value is listed as “very substantial biological potency”.
Take `CC[C@H](C)[C@H](NC(=O)[C@H](C)NC(=O)[C@H](CC(=O)O)NC(=O)[C@H](C)NC(=O)[C@@H](N)Cc1ccc(O)cc1)C(=O)N[C@@H](Cc1ccccc1)C(=O)N[C@H](C(=O)N[C@@H](CC(N)=O)C(=O)N[C@@H](CO)C(=O)N[C@@H](Cc1ccc(O)cc1)C(=O)N[C@@H](CCCNC(=N)N)C(=O)N[C@@H](CCCCN)C(=O)N[C@H](C(=O)N[C@@H](CC(C)C)C(=O)NCC(=O)N[C@@H](CCC(N)=O)C(=O)N[C@@H](CC(C)C)C(=O)N[C@@H](CO)C(=O)N[C@@H](C)C(=O)N[C@@H](CCCNC(=N)N)C(=O)N[C@@H](CCCCN)C(=O)N[C@@H](CC(C)C)C(=O)N[C@@H](CC(C)C)C(=O)N[C@@H](CCC(N)=O)C(=O)N[C@@H](CC(=O)O)C(=O)N[C@H](C(=O)N[C@@H](CCSC)C(=O)N[C@@H](CO)C(=O)N[C@@H](CCCNC(=N)N)C(=O)N[C@@H](CCC(N)=O)C(=O)N[C@@H](CCC(N)=O)C(=O)NCC(=O)N[C@@H](CCC(=O)O)C(=O)N[C@@H](CO)C(=O)N[C@@H](CC(N)=O)C(=O)N[C@@H](CCC(N)=O)C(=O)N[C@@H](CCC(=O)O)C(=O)N[C@@H](CCCNC(=N)N)C(=O)NCC(=O)N[C@@H](C)C(=O)O)[C@@H](C)CC)C(C)C)[C@@H](C)O` [Native PGRF (1-40)]: the GH-releasing activity result is recorded as “exhibit GH-releasing activity”. In addition, the “GH secretion in vitro % of controls” value (Table I, 12.5 femtomoles) is 234 ± 17 % of controls. Also, for the setting “Table I, 25 fmoles”, the “GH secretion in vitro % of controls” value is listed as 351 ± 7 % of controls. Moreover, the “GH secretion in vitro % of controls” value (Table I, 50 fmoles) was 528 ± 16 % of controls. For the setting “Table I, 100 fmoles”, the “GH secretion in vitro % of controls” value was 720 ± 32 % of controls. Moreover, under “Table I, 200 fmoles”, the “GH secretion in vitro % of controls” value was 748 ± 7 % of controls. The “GH secretion in vitro % of controls” value (Table III, 6.3 femtomoles) is given as 198 ± 5.9 % of controls. For the same compound, the “GH secretion in vitro % of controls” value (Table III, 12.5 femtomoles) is recorded as 270 ± 2.4 % of controls. Besides, the “GH secretion in vitro % of controls” value (Table III, 25.0 femtomoles) is listed as 348 ± 3.4 % of controls. For the same compound, the “GH secretion in vitro % of controls” value (Table III, 50.0 femtomoles) is on record as 466 ± 0.9 % of controls. The “GH secretion in vitro % of controls” value (Table III, 100.0 femtomoles) is 570 ± 17 % of controls. The “GH secretion in vitro % of controls” value (Table III, 200.0 femtomoles) is listed as 579 ± 2.1 % of controls. Besides, the “GH secretion in vitro % of controls” value (Table III, 400.0 femtomoles) is on record as 588 ± 10 % of controls.
Consider `CC[C@H](C)[C@H](NC(=O)[C@H](C)NC(=O)[C@H](CC(=O)O)NC(=O)[C@H](C)NC(=O)[C@@H](N)Cc1ccc(O)cc1)C(=O)N[C@@H](Cc1ccccc1)C(=O)N[C@H](C(=O)N[C@@H](CC(N)=O)C(=O)N[C@@H](CO)C(=O)N[C@@H](Cc1ccc(O)cc1)C(=O)N[C@@H](CCCNC(=N)N)C(=O)N[C@@H](CCCCN)C(=O)N[C@H](C(=O)N[C@@H](CC(C)C)C(=O)NCC(=O)N[C@@H](CCC(N)=O)C(=O)N[C@@H](CC(C)C)C(=O)N[C@@H](CO)C(=O)N[C@@H](C)C(=O)N[C@@H](CCCNC(=N)N)C(=O)N[C@@H](CCCCN)C(=O)N[C@@H](CC(C)C)C(=O)N[C@@H](CC(C)C)C(=O)N[C@@H](CCC(N)=O)C(=O)N[C@@H](CC(=O)O)C(=O)N[C@H](C(=O)N[C@@H](CCSC)C(=O)N[C@@H](CO)C(=O)N[C@@H](CCCNC(=N)N)C(=O)N[C@@H](CCC(N)=O)C(=O)N[C@@H](CCC(N)=O)C(=O)NCC(=O)N[C@@H](CCC(=O)O)C(=O)N[C@@H](CO)C(=O)N[C@@H](CC(N)=O)C(=O)N[C@@H](CCC(N)=O)C(=O)N[C@@H](CCC(=O)O)C(=O)N[C@@H](CCCNC(=N)N)C(=O)NCC(=O)N[C@@H](C)C(=O)N[C@@H](CCCNC(=N)N)C(=O)N[C@@H](C)C(=O)N[C@@H](CCCNC(=N)N)C(=O)N[C@@H](CC(C)C)C(N)=O)[C@@H](C)CC)C(C)C)[C@@H](C)O` [Native PGRF (1-44)], for which the “GH secretion in vitro % of controls” value is listed as 289 ± 10 % of controls (Table III, 6.3 femtomoles); 391 ± 8 % of controls (Table III, 12.5 femtomoles); 479 ± 8 % of controls (Table III, 25.0 femtomoles); 561 ± 14 % of controls (Table III, 50.0 femtomoles); 599 ± 7 % of controls (Table III, 100.0 femtomoles); 606 ± 6 % of controls (Table III, 200.0 femtomoles). The “GH secretion in vitro % of controls” value (Table III, 400.0 femtomoles) was 610 ± 5 % of controls. Further, the “Potency in terms of PGRF(1-40)” value (confidence limits of 1.616 and 3.131, computer calculated (BIOPROG)) is recorded as 2.2261 ×PGRF(1-40). Under “per 1 femtomole, confidence limits of 0.122 and 0.239, computer calculated (BIOPROG)”, the “Potency in terms of GRF Reference Standard” value was 0.1696 unit.
For the compound `CC[C@H](C)[C@H](NC(=O)[C@H](C)NC(=O)[C@H](CC(=O)O)NC(=O)[C@H](C)NC(=O)[C@@H](N)Cc1ccc(O)cc1)C(=O)N[C@@H](Cc1ccccc1)C(=O)N[C@H](C(=O)N[C@@H](CC(N)=O)C(=O)N[C@@H](CO)C(=O)N[C@@H](Cc1ccc(O)cc1)C(=O)N[C@@H](CCCNC(=N)N)C(=O)N[C@@H](CCCCN)C(=O)N[C@H](C(=O)N[C@@H](CC(C)C)C(=O)NCC(=O)N[C@@H](CCC(N)=O)C(=O)N[C@@H](CC(C)C)C(=O)N[C@@H](CO)C(=O)N[C@@H](C)C(=O)N[C@@H](CCCNC(=N)N)C(=O)N[C@@H](CCCCN)C(=O)N[C@@H](CC(C)C)C(=O)N[C@@H](CC(C)C)C(=O)N[C@@H](CCC(N)=O)C(=O)N[C@@H](CC(=O)O)C(=O)N[C@H](C(=O)N[C@@H](CCSC)C(=O)N[C@@H](CO)C(=O)N[C@@H](CCCNC(=N)N)C(=O)N[C@@H](CCC(N)=O)C(=O)N[C@@H](CCC(N)=O)C(=O)NCC(=O)N[C@@H](CCC(=O)O)C(=O)N[C@@H](CO)C(=O)N[C@@H](CC(N)=O)C(=O)N[C@@H](CCC(N)=O)C(=O)N[C@@H](CCC(=O)O)C(=O)O)[C@@H](C)CC)C(C)C)[C@@H](C)O` [PGRF(1-37) free acid], the GH-releasing activity result is “exhibit GH-releasing activity”.

The values are drawn from patent US4517181A, “Mammalian PGRF” (The Salk Institute for Biological Studies, priority 1982, dated 1985).
